Assay results reported in patent US12503432B2, “Ionizable lipids for nucleic acid delivery” (Global Life Sciences Solutions Canada ULC, priority 2019, dated 2025).

Experiments:
[1] = LNP characterization: size and PDI by dynamic light scattering, mRNA encapsulation efficiency by RiboGreen assay; type: physicochemical
Outline: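 Lipid nanoparticles made by microfluidic mixing of mRNA or plasmid in 100 mM sodium acetate with ethanolic lipid mix (Ignite: 3:1 flow ratio, 12 ml/min; Spark: N/P 4, 6 or 10), diluted in PBS pH 7.4. Z-average size and PDI by backscatter DLS (173°, 633 nm, 10 runs × 2 cycles). Encapsulation by RiboGreen assay.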

[2] = tested on: C57BL/6 mice; assay: In vivo delivery of EPO-encoded mRNA LNP via intravenous route, serum EPO ELISA; set-up: key to EPO Protein expression: IV in mice: *: The number of asterix symbols indicates protein expression levels interpreted by the inventors from quantitative data; **: The number of asterix symbols indicates protein expression levels interpreted by the inventors from quantitative data; ***: The number of asterix symbols indicates protein expression levels interpreted by the inventors from quantitative data; ****: The number of asterix symbols indicates protein expression levels interpreted by the inventors from quantitative data; *****: The number of asterix symbols indicates protein expression levels interpreted by the inventors from quantitative data; *******: The number of asterix symbols indicates protein expression levels interpreted by the inventors from quantitative data; conditions: for EPO Protein expression: IV in mice: qualitative grade interpreted from quantitative data
Source text: Lipid Nanoparticles with the composition IL/DSPC/Cholesterol/PEG-DMG2000 (LM 02—see Table 3) were used to encapsulate recombinant human erythropoietin (EPO) encoded mRNA with 5-moU modifications [TriLink CleanCapo 5-moU EPO mRNA L7201]. To create the LNP, lipid mix in ethanol was microfluidically mixed with a low PH buffered solution of 5-moU EPO mRNA mixer at an N/P ratio of 6 using a NanoAssemblr® Ignite™ microfluidic mixer. The microfluidically mixed particles were downstream processed using Amicon® ultra 15 10 kDa MWCO units (EMD Millipore) filtration technique. The RNA loaded lipid particles were then characterized for size, PDI and Encapsulation Efficiency (EE). Size and PDI were measured using dynamic light scattering techniques described above, and nucleic acid encapsulation efficiency was calculated using a Quant-iT RiboGreen RNA assay as described supra, modified to use hEPO mNA as the standard instead if the standard RNA in the kit. The hydrodynamic diameter of these mRNA-LNPs was ˜70 nm with a PDI in the range of 0.02 to 0.1 and an encapsulation efficiency of ˜97.8%.
Animals were handled according to the Institutional Animal Care and Use Committee ethics protocols. For experiments, 6-8 week old C57BL/6 mice were purchased from Envigo (South Kent, WA, USA). For in vivo activity, female C57BL/6 mice were treated intravenously with EPO mRNA LNPs at specified dosages of 0.5-3 mg/Kg. Samples of 50-75 μL of blood were collected 6 h post administration via saphenous vein, and at regular time intervals of 24 h or 48 h.
After harvest, blood was immediately prepared to produce serum samples using standard techniques, and stored at −80 degrees C. Briefly, after collection, the blood was allowed to clot at room temperature for 15-30 minutes. The clot was removed by centrifuging the tubes at 1000-2000×g for 10 min at 4 degrees Celsius. The clear golden-yellow color supernatant was carefully removed and transferred to sterile screw-capped clear polypropylene tubes on ice. The serum was then stored, if necessary, at −80° C. until analysis.
Samples were thawed, then analyzed at appropriate dilutions for EPO protein expression and for cytokine/chemokine levels. The total serum EPO levels were evaluated using Quantikine® IVD EPO ELISA kit (Bio-Techne, Minneapolis, MN, USA).
Following i.v administration of a 0.5 mg/Kg dose of recombinant human EPO-encoded mRNA LNPs containing ionizable lipid MC3, PNI 121 or PNI 123 using the LM02 composition at N/P 6, EPO expression levels at 6 h (upper, FIG. 6) and at 24 h (lower, FIG. 6) in C56BL/6 mice were examined; hEPO protein was measured using Quantikine® IVD® ELISA Human Erythropoietin Immunoassay protocol.

[3] = 5-moU EPO encoded LNPs, IL:DSPC:cholesterol:DMG-PEG (50:10:38.5:1.5), N/P 6
[4] = Table 4 LNPs, payload and lipid mix not stated
[5] = OVA encoded LNPs, payload WT OVA, LM02, N/P 8

Row | Diameter (Z. ave, nm) [1, 3] | Encapsulation Efficiency (%) [1, 3] | Polydispersity Index (PDI) [1, 3] | Diameter (Z. ave, nm) [1, 4] | Encapsulation Efficiency (%) [1, 4] | Polydispersity Index (PDI) [1, 4] | Diameter (Z. ave, nm) [1, 5] | Encapsulation Efficiency (%) [1, 5] | Polydispersity Index (PDI) [1, 5] | Compound | EPO Protein expression: IV in mice [2] | delivering hEPO and expressing hEPO in vivo ([2]; i.v., 1 and 3 mg/Kg, LM02, N/P 6, 6 h and 24 h, FIG. 7)
1 | 73.2 nm | 98.9% | 0.03 | 91.2 nm | 98.7% | 0.07 | – | – | – | CC/C=C\CC1C(CC(=O)OCC(COCCCCCCCC/C=C\C/C=C\CCCCC)OCCCCCCCC/C=C\C/C=C\CCCCC)CCC1OC(=O)CCCN1CCCC1 (centres unmarked) [PNI 558] | *** | –
2 | 64.6 nm | 97.3% | 0.03 | 59.4 nm | 95.9% | 0.07 | – | – | – | CC/C=C\CC1C(CC(=O)OCC(COCCCCCCCC/C=C\C/C=C\CCCCC)OCCCCCCCC/C=C\C/C=C\CCCCC)CCC1OC(=O)CC1CCCCN1C (centres unmarked) [PNI 559] | *** | –
3 | 76.6 nm | 97.3% | 0.04 | 124.7 nm | 60.1% | 0.054 | 96.5 nm | 76.1% | 0.03 | CC/C=C\CC1C(CC(=O)OCC(COCCCCCCCC/C=C\C/C=C\CCCCC)OCCCCCCCC/C=C\C/C=C\CCCCC)CCC1OC(=O)C1(C)CCN(C)CC1 (centres unmarked) [PNI 123] | *** | performed very well against MC3 LNP
4 | 97.7 nm | 93.4% | 0.08 | 74.10 nm | 93.0% | 0.156 | 93.2 nm | 98.4% | 0.09 | CC/C=C\CC1C(CC(=O)OCC(COCCCCCCCC/C=C\C/C=C\CCCCC)OCCCCCCCC/C=C\C/C=C\CCCCC)CCC1OC(=O)CCCN(C)C (centres unmarked) [PNI 101] | ** | –
